Numbers after ± are expanded uncertainties.
Conditions: for mass density: 100 kPa, Liquid, Buoyancy - hydrostatic balance with magnetic suspension - one sinker

CCn1cc[n+](C)c1.[Cl-] [1-ethyl-3-methylimidazolium chloride]
Conditions	mass density [kg/m3]
313.38 K	1134.76 ± 1.2
318.3 K	1132.06 ± 1.2
323.25 K	1129.33 ± 1.2
328.1 K	1126.5 ± 1.2
333.15 K	1124.02 ± 1.1
338.1 K	1120.96 ± 1.1
342.86 K	1118.28 ± 1.1
347.66 K	1115.32 ± 1.1
353.21 K	1112.21 ± 1.1
359.06 K	1109.07 ± 1.1
364.85 K	1106.29 ± 1.1

surface tension liquid-gas [mN/m]
Conditions	Ring tensiometer	Wilhelmy Plate
333.2 K	62.56 ± 1	62.6 ± 0.63
338.15 K	62.12 ± 1	–
338.24 K	–	62.26 ± 0.63
343.38 K	62.16 ± 1	61.82 ± 0.62
348.57 K	–	61.51 ± 0.62
348.58 K	61.59 ± 1	–
353.3 K	61.45 ± 1	–
353.32 K	–	61.1 ± 0.61
358.44 K	60.8 ± 0.99	–
358.5 K	–	60.64 ± 0.61
364.76 K	60.05 ± 0.98	–
364.96 K	–	60.2 ± 0.61

CCCCCCn1cc[n+](C)c1.[Cl-] [1-hexyl-3-methylimidazolium chloride]
surface tension liquid-gas [mN/m]
Conditions	Ring tensiometer	Wilhelmy Plate
303.19 K	39.83 ± 0.73	–
303.22 K	–	39.37 ± 0.12
308.21 K	–	39.15 ± 0.12
308.22 K	39.58 ± 0.72	–
312.93 K	–	38.95 ± 0.12
312.95 K	39.37 ± 0.72	–
318.33 K	39.1 ± 0.72	38.69 ± 0.12
323.1 K	–	38.45 ± 0.12
323.12 K	38.84 ± 0.72	–
328.18 K	–	38.17 ± 0.12
328.2 K	38.54 ± 0.72	–
333.27 K	–	37.94 ± 0.12
333.31 K	38.3 ± 0.71	–
338.68 K	–	37.66 ± 0.12
338.71 K	37.97 ± 0.71	–
343.01 K	–	37.44 ± 0.12
343.06 K	37.74 ± 0.71	–
348.1 K	–	37.16 ± 0.12
348.15 K	37.52 ± 0.71	–
353.53 K	–	36.93 ± 0.12
353.63 K	37.19 ± 0.71	–
358.12 K	–	36.68 ± 0.12
358.24 K	37 ± 0.71	–
363.07 K	–	36.42 ± 0.12
363.17 K	36.72 ± 0.7	–

Conditions	mass density [kg/m3]
303.22 K	1035.05 ± 0.29
308.25 K	1032.18 ± 0.29
313 K	1029.5 ± 0.29
318.38 K	1026.54 ± 0.29
323.18 K	1023.64 ± 0.29
328.31 K	1020.97 ± 0.29
333.34 K	1017.64 ± 0.29
338.73 K	1014.46 ± 0.29
343.06 K	1011.76 ± 0.29
348.19 K	1009.28 ± 0.29
353.71 K	1006.44 ± 0.29
358.14 K	1004 ± 0.29
363.17 K	1001.49 ± 0.29

CCC[n+]1ccn(C)c1.[Cl-] [1-methyl-3-propylimidazolium chloride]
surface tension liquid-gas [mN/m]
Conditions	Ring tensiometer	Wilhelmy Plate
308.21 K	56.7 ± 1.2	–
313.04 K	–	55.61 ± 0.08
313.07 K	56.45 ± 1.2	–
318.32 K	56.27 ± 1.2	–
318.34 K	–	55.41 ± 0.08
323.54 K	55.92 ± 1.2	54.98 ± 0.08
328.41 K	–	54.7 ± 0.08
328.46 K	55.49 ± 1.2	–
333.49 K	–	54.42 ± 0.08
333.5 K	55.37 ± 1.2	–
337.95 K	–	54.09 ± 0.08
338 K	54.98 ± 1.2	–
343.39 K	–	53.8 ± 0.08
343.45 K	54.58 ± 1.2	–
348.34 K	–	53.59 ± 0.08
348.39 K	54.3 ± 1.2	–
353.07 K	–	53.29 ± 0.08
353.11 K	54.07 ± 1.2	–
358.45 K	–	52.95 ± 0.08
358.5 K	53.69 ± 1.2	–
363.91 K	53.27 ± 1.2	–
364.37 K	–	52.57 ± 0.08

Conditions	mass density [kg/m3]
308.26 K	1103.45 ± 0.44
313.1 K	1100.71 ± 0.44
318.25 K	1097.5 ± 0.44
323.58 K	1094.84 ± 0.44
328.52 K	1091.95 ± 0.44
333.54 K	1089.17 ± 0.44
338.03 K	1086.64 ± 0.44
343.46 K	1083.12 ± 0.44
348.39 K	1080.73 ± 0.44
353.12 K	1078.37 ± 0.44
358.51 K	1075.69 ± 0.44
363.89 K	1071.76 ± 0.44

Cl.Cn1ccnc1 [1-methylimidazolium chloride]
Conditions	mass density [kg/m3]
333.65 K	1195.33 ± 1
338.68 K	1192.04 ± 1
343.7 K	1187.98 ± 1
347.72 K	1186.51 ± 1
353.06 K	1184.13 ± 1
359.06 K	1180.78 ± 1
363.86 K	1177.41 ± 1

surface tension liquid-gas [mN/m]
Conditions	Ring tensiometer	Wilhelmy Plate
333.66 K	67.02 ± 1.1	–
333.67 K	–	66.84 ± 0.07
338.7 K	66.37 ± 1.1	66.5 ± 0.07
343.19 K	–	66.13 ± 0.07
343.24 K	66.48 ± 1.1	–
348.1 K	66.18 ± 1.1	–
348.11 K	–	65.78 ± 0.07
352.35 K	–	65.4 ± 0.07
352.38 K	65.96 ± 1.1	–
359.12 K	65.47 ± 1.1	–
359.17 K	–	64.87 ± 0.07
363.94 K	65.12 ± 1.1	–
364 K	–	64.58 ± 0.07

CCCCn1cc[n+](C)c1.[Cl-] [1-butyl-3-methylimidazolium chloride]
surface tension liquid-gas [mN/m]
Conditions	Ring tensiometer	Wilhelmy Plate
303.11 K	50.32 ± 1.2	–
308.23 K	–	49.64 ± 0.12
308.27 K	50.3 ± 1.2	–
313.06 K	–	49.26 ± 0.12
313.07 K	49.73 ± 1.2	–
318.04 K	49.68 ± 1.2	–
318.07 K	–	48.97 ± 0.12
323.1 K	49.23 ± 1.2	48.58 ± 0.12
327.9 K	–	48.24 ± 0.12
327.96 K	48.8 ± 1.2	–
333.82 K	–	47.81 ± 0.12
333.85 K	48.35 ± 1.2	–
338.23 K	48.24 ± 1.2	–
338.28 K	–	47.55 ± 0.12
342.85 K	47.76 ± 1.2	–
343.23 K	–	47.16 ± 0.12
348.79 K	47.38 ± 1.2	–
348.85 K	–	46.9 ± 0.12
353.81 K	–	46.5 ± 0.12
353.87 K	47.16 ± 1.2	–
357.26 K	–	46.29 ± 0.12
357.34 K	46.88 ± 1.1	–
364.83 K	46.46 ± 1.1	–
364.9 K	–	45.76 ± 0.12

Conditions	mass density [kg/m3]
313.05 K	1073.4 ± 0.52
318.21 K	1070.57 ± 0.52
323.11 K	1067.9 ± 0.52
328.37 K	1065.5 ± 0.52
334.27 K	1062.01 ± 0.52
338.89 K	1059.46 ± 0.52
343.88 K	1056.78 ± 0.52
349.01 K	1054.21 ± 0.52
353.91 K	1051.34 ± 0.52
357.34 K	1049.12 ± 0.52
364.78 K	1044.98 ± 0.52

CCCCCCCCCCn1cc[n+](C)c1.[Cl-] [1-decyl-3-methylimidazolium chloride]
Conditions	surface tension liquid-gas [mN/m]
317.84 K, Ring tensiometer	27.09 ± 0.68
323.12 K, Wilhelmy Plate	26.44 ± 0.13
323.14 K, Ring tensiometer	26.85 ± 0.67
328.25 K, Wilhelmy Plate	26.12 ± 0.13
328.26 K, Ring tensiometer	26.45 ± 0.67
333.1 K, Wilhelmy Plate	25.87 ± 0.13
333.13 K, Ring tensiometer	26.14 ± 0.67
338.32 K, Wilhelmy Plate	25.57 ± 0.13
338.37 K, Ring tensiometer	25.54 ± 0.67
342.9 K, Wilhelmy Plate	25.37 ± 0.13
342.95 K, Ring tensiometer	25.7 ± 0.67
348.09 K, Wilhelmy Plate	25.15 ± 0.13
348.13 K, Ring tensiometer	25.61 ± 0.67
353.32 K, Wilhelmy Plate	24.85 ± 0.13
353.33 K, Ring tensiometer	24.76 ± 0.66
358.44 K, Wilhelmy Plate	24.59 ± 0.12
358.57 K, Ring tensiometer	24.5 ± 0.66

Conditions	mass density [kg/m3]
317.88 K	973.64 ± 0.36
323.19 K	970.69 ± 0.36
328.33 K	968.07 ± 0.36
333.2 K	964.94 ± 0.35
338.44 K	962.23 ± 0.35
343.26 K	958.59 ± 0.35
348.19 K	956.59 ± 0.35
353.38 K	953.42 ± 0.35
358.17 K	950.62 ± 0.35
363.44 K	947.62 ± 0.35

From the NIST ThermoML archive (doi:10.1016/j.fluid.2017.08.022)
